Assay results taken from patent US20250236611A1, “PYRAZOLE COMPOUNDS AND USES THEREOF” (ALCON INC., priority 2021, published 2025).

Experiments:
Type in all cases: biochemical
Conditions in all cases: 10 nM JAK enzyme, 800 nM Abl peptide, room temperature 75 min
JAK3 = biological target: T1, JAK3 (Homo sapiens, UniProt P52333); assay: JAK assay (KINASE-GLO luminescent kinase assay), JAK3
T1 sequence (P52333 1-1124): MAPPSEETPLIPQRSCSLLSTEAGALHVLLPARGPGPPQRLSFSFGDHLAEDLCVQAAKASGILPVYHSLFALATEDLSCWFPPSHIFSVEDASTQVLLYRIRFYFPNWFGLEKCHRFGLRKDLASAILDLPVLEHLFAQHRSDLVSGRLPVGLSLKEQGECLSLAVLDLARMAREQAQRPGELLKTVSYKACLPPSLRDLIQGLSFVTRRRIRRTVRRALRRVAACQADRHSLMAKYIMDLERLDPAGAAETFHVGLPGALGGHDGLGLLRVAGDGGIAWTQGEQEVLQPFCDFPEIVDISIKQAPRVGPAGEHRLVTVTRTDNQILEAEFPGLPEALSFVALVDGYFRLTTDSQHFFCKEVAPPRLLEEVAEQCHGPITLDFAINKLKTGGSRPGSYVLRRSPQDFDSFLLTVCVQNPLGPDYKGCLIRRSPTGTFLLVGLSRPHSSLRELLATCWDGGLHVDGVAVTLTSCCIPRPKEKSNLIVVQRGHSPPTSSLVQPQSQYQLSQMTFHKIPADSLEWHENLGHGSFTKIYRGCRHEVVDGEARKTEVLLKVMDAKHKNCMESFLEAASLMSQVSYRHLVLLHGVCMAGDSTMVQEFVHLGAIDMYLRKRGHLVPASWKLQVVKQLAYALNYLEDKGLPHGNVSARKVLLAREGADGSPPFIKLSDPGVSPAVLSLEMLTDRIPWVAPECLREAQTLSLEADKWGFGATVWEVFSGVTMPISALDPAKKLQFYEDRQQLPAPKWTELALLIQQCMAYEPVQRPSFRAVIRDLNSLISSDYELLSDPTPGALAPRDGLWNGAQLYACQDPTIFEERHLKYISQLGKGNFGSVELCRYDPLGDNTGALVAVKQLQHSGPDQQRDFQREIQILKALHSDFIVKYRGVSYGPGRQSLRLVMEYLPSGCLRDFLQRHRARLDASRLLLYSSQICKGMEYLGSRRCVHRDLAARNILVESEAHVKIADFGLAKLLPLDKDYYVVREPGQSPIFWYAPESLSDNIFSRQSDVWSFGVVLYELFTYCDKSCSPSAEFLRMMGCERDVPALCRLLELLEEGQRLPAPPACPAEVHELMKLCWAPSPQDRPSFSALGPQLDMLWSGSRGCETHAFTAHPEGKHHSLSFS
Description: (§1) All compounds were initially prepared as 10 mM stocks in anhydrous dimethylsulfoxide (DMSO). A 20 μL aliquot of the 10 mM solutions was transferred to individual wells in column 1 of a 96-well polypropylene microtiter plate (Corning #3363) and diluted with DMSO to give a final compound concentration of 4 mM. Test compounds were then serially diluted 1:5 in DMSO for an 11-point concentration response and further diluted in the assay buffer bringing all compound concentrations to a final range of 100 μM to 10 pM in 2.5% DMSO. The assay was performed in white 96-well, flat-bottom, half-area, non-binding assay plate (Corning #3642) in assay buffer consisting of 20 mM HEPES (pH 7.5), 10 mM MgCl2*6H2O, 100 μM sodium orthovanadate, 0.05% CHAPS and 0.1% bovine serum albumin. A 10 μL aliquot of compound from each well of the intermediate dilution plate and 20 μL of a 2×JAK substrate/enzyme solution containing acceptor substrate (800 nM Abl peptide), JAK enzyme (10 nM JAK1, JAK2, JAK3, or TYK2), and 1,4-Dithiothreitol (DTT, 2 μM) were added to all wells. The reaction was initiated by the addition of 10 μL of 4× stock solution ATP (2 μM). Reactions were thoroughly mixed manually, covered and allowed to incubate at room temperature for 75 min. Protein kinase activity was quantitated using Promega's KINASE-GLO™ luminescent Kinase Assay Kit according to the manufacturer's directions. ATP concentrations remaining in Test wells following the termination of the enzymatic reaction were compared against control wells containing equivalent amounts of DMSO containing no inhibitor (CTRL). […] Percent of Control (POC) values were determined for each concentration of compound tested according to the equation:
(§2) [formula] • IC50 values were calculated using the following 4-parameter logistic curve-fitting algorithm:
(§3) [formula] • IC50 values were converted to Ki values using the Cheng-Prusoff Equation: […]

TYK2 = TYK2 (Homo sapiens, UniProt P29597); assay: JAK assay (KINASE-GLO luminescent kinase assay), TYK2
Sequence of TYK2 (P29597 whole entry): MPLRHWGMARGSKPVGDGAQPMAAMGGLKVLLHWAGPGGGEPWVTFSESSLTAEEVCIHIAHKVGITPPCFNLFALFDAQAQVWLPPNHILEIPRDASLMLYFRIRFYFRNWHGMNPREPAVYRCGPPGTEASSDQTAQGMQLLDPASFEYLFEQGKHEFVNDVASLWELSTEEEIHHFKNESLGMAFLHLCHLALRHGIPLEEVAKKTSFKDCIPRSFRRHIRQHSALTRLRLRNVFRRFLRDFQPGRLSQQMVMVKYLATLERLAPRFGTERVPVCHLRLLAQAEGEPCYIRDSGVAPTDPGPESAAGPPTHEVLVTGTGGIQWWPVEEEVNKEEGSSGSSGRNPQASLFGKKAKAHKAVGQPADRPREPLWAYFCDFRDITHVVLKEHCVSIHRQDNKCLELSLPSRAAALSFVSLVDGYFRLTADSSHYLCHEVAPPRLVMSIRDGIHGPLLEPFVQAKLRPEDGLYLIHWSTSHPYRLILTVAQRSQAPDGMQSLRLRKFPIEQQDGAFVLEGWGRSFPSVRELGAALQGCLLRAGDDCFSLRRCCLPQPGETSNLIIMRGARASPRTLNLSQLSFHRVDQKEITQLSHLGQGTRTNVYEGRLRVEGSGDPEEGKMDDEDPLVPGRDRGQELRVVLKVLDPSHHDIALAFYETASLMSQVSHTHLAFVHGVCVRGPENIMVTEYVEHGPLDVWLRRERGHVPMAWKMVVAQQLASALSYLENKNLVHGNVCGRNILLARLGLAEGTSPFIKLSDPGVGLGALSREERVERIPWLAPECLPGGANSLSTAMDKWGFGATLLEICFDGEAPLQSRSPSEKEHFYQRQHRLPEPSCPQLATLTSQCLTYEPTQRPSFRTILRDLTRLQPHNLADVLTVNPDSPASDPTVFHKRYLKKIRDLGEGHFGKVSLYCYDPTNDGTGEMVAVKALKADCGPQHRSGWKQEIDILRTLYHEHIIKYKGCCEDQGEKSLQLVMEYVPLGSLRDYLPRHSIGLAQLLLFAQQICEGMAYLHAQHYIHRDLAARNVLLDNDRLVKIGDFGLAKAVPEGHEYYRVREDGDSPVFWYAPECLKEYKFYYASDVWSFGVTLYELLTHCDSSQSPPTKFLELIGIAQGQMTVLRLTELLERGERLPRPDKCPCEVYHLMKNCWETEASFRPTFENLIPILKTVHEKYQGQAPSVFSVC
Description: as §1, with “A 20 μL aliquot of the 10 mM solutions was transferred to individual wells in column 1 of a 96-well polypropylene microtiter plate (Corning #3363) and diluted with DMSO to give a final compound concentration of 4 mM.” left out
as §2, §3

JAK2 = JAK2 (Homo sapiens, UniProt O60674); assay: JAK assay (KINASE-GLO luminescent kinase assay), JAK2
Sequence of JAK2 (O60674 whole entry): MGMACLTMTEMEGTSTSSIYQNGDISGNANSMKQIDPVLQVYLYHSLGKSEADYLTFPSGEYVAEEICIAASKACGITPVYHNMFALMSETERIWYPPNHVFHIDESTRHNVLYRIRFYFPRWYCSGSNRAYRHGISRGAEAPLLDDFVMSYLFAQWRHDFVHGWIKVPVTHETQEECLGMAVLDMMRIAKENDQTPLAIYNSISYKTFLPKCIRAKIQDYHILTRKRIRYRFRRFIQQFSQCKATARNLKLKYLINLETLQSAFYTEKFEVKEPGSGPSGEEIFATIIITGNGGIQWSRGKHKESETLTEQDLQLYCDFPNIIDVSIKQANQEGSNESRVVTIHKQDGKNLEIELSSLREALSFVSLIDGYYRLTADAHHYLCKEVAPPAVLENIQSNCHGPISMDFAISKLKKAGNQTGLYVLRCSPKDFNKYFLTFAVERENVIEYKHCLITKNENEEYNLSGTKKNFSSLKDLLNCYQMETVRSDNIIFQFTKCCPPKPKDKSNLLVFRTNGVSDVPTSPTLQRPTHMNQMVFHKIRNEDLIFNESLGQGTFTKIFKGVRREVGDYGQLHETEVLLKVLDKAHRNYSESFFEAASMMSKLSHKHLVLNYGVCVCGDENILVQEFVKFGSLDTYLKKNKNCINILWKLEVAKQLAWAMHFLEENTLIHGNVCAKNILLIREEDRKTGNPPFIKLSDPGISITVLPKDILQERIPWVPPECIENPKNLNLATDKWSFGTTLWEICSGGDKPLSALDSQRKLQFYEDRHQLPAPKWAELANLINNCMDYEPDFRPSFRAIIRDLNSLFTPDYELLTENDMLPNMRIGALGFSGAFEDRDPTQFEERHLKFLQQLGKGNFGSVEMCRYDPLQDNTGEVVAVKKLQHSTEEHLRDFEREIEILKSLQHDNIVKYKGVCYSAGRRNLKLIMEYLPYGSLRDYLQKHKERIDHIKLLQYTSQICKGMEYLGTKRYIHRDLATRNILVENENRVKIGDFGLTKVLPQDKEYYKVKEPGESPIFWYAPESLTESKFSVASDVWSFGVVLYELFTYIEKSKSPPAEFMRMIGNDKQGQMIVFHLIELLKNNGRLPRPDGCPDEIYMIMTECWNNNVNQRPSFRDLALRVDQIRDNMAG
Description: as §1, §2, §3

JAK1 = JAK1 (Homo sapiens, UniProt P23458); assay: JAK assay (KINASE-GLO luminescent kinase assay), JAK1
Sequence of JAK1 (P23458 whole entry): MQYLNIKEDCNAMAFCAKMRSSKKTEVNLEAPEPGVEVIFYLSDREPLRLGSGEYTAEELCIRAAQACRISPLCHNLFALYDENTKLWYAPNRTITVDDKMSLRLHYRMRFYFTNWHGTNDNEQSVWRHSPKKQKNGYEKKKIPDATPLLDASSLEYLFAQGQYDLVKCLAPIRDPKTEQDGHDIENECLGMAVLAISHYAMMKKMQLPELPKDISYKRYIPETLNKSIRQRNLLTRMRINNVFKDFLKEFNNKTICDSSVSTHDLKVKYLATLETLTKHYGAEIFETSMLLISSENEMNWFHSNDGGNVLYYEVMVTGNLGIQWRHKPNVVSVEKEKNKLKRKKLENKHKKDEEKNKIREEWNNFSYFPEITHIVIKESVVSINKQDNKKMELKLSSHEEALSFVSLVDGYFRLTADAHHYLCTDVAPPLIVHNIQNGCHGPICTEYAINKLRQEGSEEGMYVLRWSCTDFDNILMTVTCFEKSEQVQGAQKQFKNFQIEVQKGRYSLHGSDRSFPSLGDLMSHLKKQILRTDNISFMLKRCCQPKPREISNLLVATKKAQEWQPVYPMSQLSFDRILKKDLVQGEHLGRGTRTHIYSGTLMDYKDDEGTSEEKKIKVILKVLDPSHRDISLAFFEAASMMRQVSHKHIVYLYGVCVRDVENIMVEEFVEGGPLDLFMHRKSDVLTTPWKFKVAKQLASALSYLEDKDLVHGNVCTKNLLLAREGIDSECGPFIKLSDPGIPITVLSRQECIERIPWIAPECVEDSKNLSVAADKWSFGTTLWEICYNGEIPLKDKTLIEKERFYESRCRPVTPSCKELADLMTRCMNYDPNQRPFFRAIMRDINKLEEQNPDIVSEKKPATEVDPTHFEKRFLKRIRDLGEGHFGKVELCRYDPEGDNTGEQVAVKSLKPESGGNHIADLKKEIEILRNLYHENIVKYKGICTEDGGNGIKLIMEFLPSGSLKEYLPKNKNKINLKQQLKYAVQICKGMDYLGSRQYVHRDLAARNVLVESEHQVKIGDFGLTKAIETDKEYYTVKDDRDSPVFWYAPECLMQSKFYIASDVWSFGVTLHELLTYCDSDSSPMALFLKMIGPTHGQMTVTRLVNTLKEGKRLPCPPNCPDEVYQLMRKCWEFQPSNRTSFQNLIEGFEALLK
Description: as §1, §2, §3

## Cc1cnc(Nc2ccc(OCCN(C)C)cc2)nc1-c1cnn(CC2(CF)CC2)c1 [(C)CCOC1═CC═C(NC2═NC]
JAK3
  IC50: < 100 nM
TYK2
  IC50: < 100 nM
JAK2
  IC50: < 10 nM
JAK1
  IC50: < 100 nM

## Cc1cnc(Nc2ccc(N3CCOCC3)cc2)nc1-c1cnn(CC2(C#N)CC2)c1 [C(C1═C(N═C(NC2═CC═C(C═C2)N3CCOCC3)]
JAK3
  IC50: < 10 nM
TYK2
  IC50: < 10 nM
JAK2
  IC50: < 10 nM
JAK1
  IC50: < 100 nM

## Cc1cnc(NC2CCOCC2)nc1-c1cnn(CCC#N)c1 [CC1═C(N═C(NC2CCOCC2)N═C1)C3═C[N]]
JAK3
  IC50: > 50000 nM
TYK2
  IC50: > 50000 nM
JAK2
  IC50: < 100000 nM
JAK1
  IC50: < 100000 nM

## Cc1cnc(Nc2cccc3c2CNC3=O)nc1-c1cnn(CC2(Cl)CC2)c1 [CC1═C(N═C(NC2═C3CNC]
JAK3
  IC50: < 1000 nM
TYK2
  IC50: < 100000 nM
JAK2
  IC50: < 100 nM
JAK1
  IC50: < 100000 nM

## Cc1cnc(Nc2ccc(N3CC4(COC4)C3)cc2)nc1-c1cnn(CC2(CF)CC2)c1 [CC1═C(N═C(NC2═CC(═C(C═C2)N3CC4]
JAK3
  IC50: < 10 nM
TYK2
  IC50: < 10 nM
JAK2
  IC50: < 10 nM
JAK1
  IC50: < 100 nM

## Cc1cnc(Nc2cccc(CCO)c2)nc1-c1cnn(CC2(CF)CC2)c1 [CC1═C(N═C(NC2═CC(═CC═C2)CCO)N═C1)C3═C[N]]
JAK3
  IC50: < 10 nM
TYK2
  IC50: < 10 nM
JAK2
  IC50: < 10 nM
JAK1
  IC50: < 10 nM

## Cc1cnc(Nc2cccc(C(N)=O)c2)nc1-c1cnn(CC2(CF)CC2)c1 [CC1═C(N═C(NC2═CC(═CC═C2)C]
JAK3
  IC50: < 100 nM
TYK2
  IC50: < 10 nM
JAK2
  IC50: < 10 nM
JAK1
  IC50: < 100 nM

## Cc1cnc(Nc2cc(CO)ns2)nc1-c1cnn(CC2(CF)CC2)c1 [CC1═C(N═C(NC2═CC(═NS2)CO)N═C1)C3═C[N]]
JAK3
  IC50: < 10 nM
TYK2
  IC50: < 10 nM
JAK2
  IC50: < 10 nM
JAK1
  IC50: < 10 nM

## Cc1cnc(Nc2cc(COC(=O)CCN3CCOCC3)ns2)nc1-c1cnn(CC2(CF)CC2)c1 [CC1═C(N═C(NC2═CC(═NS2)COC]
JAK3
  IC50: < 10 nM
TYK2
  IC50: < 10 nM
JAK2
  IC50: < 10 nM
JAK1
  IC50: < 100 nM

## Cc1cnc(Nc2cc(C(=O)O)ns2)nc1-c1cnn(CC2(CF)CC2)c1 [CC1═C(N═C(NC2═CC(═NS2)C]
JAK3
  IC50: < 100 nM
TYK2
  IC50: < 100 nM
JAK2
  IC50: < 10 nM
JAK1
  IC50: < 100 nM

## Cc1cnc(Nc2ccc(S(C)(=O)=O)c(F)c2)nc1-c1cnn(CC2(Cl)CC2)c1 [CC1═C(N═C(NC2═CC═C(C(═C2)F)[S]]
JAK3
  IC50: < 100 nM
TYK2
  IC50: < 10 nM
JAK2
  IC50: < 10 nM
JAK1
  IC50: < 100 nM

## Cc1cnc(Nc2ccc(CN3CCOCC3)cc2)nc1 [CC1═C(N═C(NC2═CC═C(CN3CCOCC3)C═C2)N═C1)]
JAK3
  IC50: < 10 nM
TYK2
  IC50: < 100 nM
JAK2
  IC50: < 10 nM
JAK1
  IC50: < 100 nM

## Cc1cnc(Nc2ccc(CNC(=O)OC(C)(C)C)cc2)nc1-c1cnn(CC2(CF)CC2)c1 [CC1═C(N═C(NC2═CC═C(CNC(═O)OC]
JAK3
  IC50: < 100 nM
TYK2
  IC50: < 100 nM
JAK2
  IC50: < 10 nM
JAK1
  IC50: < 100 nM

## Cc1cnc(Nc2ccc(CO)c(CO)c2)nc1-c1cnn(CC2(CF)CC2)c1 [CC1═C(N═C(NC2═CC═C(CO)C]
JAK3
  IC50: < 100 nM
TYK2
  IC50: < 10 nM
JAK2
  IC50: < 10 nM
JAK1
  IC50: < 100 nM

## Cc1cnc(Nc2ccc(C3CN(C(=O)OC(C)(C)C)C3)cc2)nc1-c1cnn(CCC#N)c1 [CC1═C(N═C(NC2═CC═C(C═C2)C3CN]
JAK3
  IC50: < 100 nM
TYK2
  IC50: < 10 nM
JAK2
  IC50: < 10 nM
JAK1
  IC50: < 100 nM

## Cc1cnc(Nc2ccc(N3CC4(COC4)C3)cc2)nc1-c1cnn(CC2(CF)CC2)c1 [CC1═C(N═C(NC2═CC═C(C═C2)N3CC4]
JAK3
  IC50: < 10 nM
TYK2
  IC50: < 100 nM
JAK2
  IC50: < 10 nM
JAK1
  IC50: < 100 nM

## Cc1cnc(Nc2ccc(N3CCN(C(=O)OC(C)(C)C)CC3)cc2)nc1-c1cnn(CC2(CF)CC2)c1 [CC1═C(N═C(NC2═CC═C(C═C2)N3CCN]
JAK3
  IC50: < 100 nM
TYK2
  IC50: < 100 nM
JAK2
  IC50: < 10 nM
JAK1
  IC50: < 1000 nM

## Cc1cnc(Nc2ccc(S(C)(=O)=O)cc2)nc1-c1cnn(CC2(Cl)CC2)c1 [CC1═C(N═C(NC2═CC═C(C═C2)[S]]
JAK3
  IC50: < 10 nM
TYK2
  IC50: < 10 nM
JAK2
  IC50: < 10 nM
JAK1
  IC50: < 100 nM

## Cc1cnc(Nc2cccc(C(N)=O)c2)nc1-c1cnn(CC2(CF)CC2)c1 [CC1═C(N═C(NC2═CC═CC(═C2)C]
JAK3
  IC50: < 100 nM
JAK2
  IC50: < 10 nM

## Cc1cnc(Nc2ccccn2)nc1-c1cnn(CC2(Cl)CC2)c1 [CC1═C(N═C(NC2═CC═CC═N2)N═C1)C3═C[N]]
JAK3
  IC50: < 100000 nM
TYK2
  IC50: < 100000 nM
JAK2
  IC50: < 1000 nM
JAK1
  IC50: < 100000 nM

## Cc1cnc(Nc2ccns2)nc1-c1cnn(CC2(CF)CC2)c1 [CC1═C(N═C(NC2═CC═NS2)N═C1)C3═C[N]]
JAK2
  IC50: < 10 nM

## Cc1cnc(Nc2cnc(N3CCOCC3)nc2)nc1-c1cnn(CC2(CF)CC2)c1 [CC1═C(N═C(NC2═CN═C]
JAK3
  IC50: < 100 nM
TYK2
  IC50: < 1000 nM
JAK2
  IC50: < 10 nM
JAK1
  IC50: < 1000 nM

## Cc1cnc(NC(=O)Nc2ccc(Cl)cc2)nc1-c1cnn(CC2(CF)CC2)c1 [CC1═C(N═C(NC(═O)NC2═CC═C]
JAK3
  IC50: > 50000 nM
TYK2
  IC50: > 50000 nM
JAK2
  IC50: > 50000 nM
JAK1
  IC50: > 50000 nM

## Cc1cnc(NC(=O)Oc2ccc(Cl)cc2)nc1-c1cnn(CC2(CF)CC2)c1 [CC1═C(N═C(NC(═O)OC2═CC═C]
JAK3
  IC50: < 100000 nM
TYK2
  IC50: < 100000 nM
JAK2
  IC50: < 1000 nM
JAK1
  IC50: < 100000 nM

## Cc1cnc(NCCN2CCOCC2)nc1-c1cnn(CCC#N)c1 [CC1═C(N═C(NCCN2CCOCC2)N═C1)C3═C[N]]
JAK3
  IC50: > 50000 nM
JAK2
  IC50: < 100000 nM
JAK1
  IC50: < 100000 nM

## Cc1ccc(S(=O)(=O)Nc2ncc(Cl)c(-c3cnn(CCC#N)c3)n2)cc1 [CC1═CC═C(C═C1)[S](═O)(═O)NC2═NC]
TYK2
  IC50: < 100000 nM
JAK2
  IC50: < 100000 nM

## Cc1cnc(Nc2cccc3c2CN(C)C3)nc1-c1cnn(CC2(Cl)CC2)c1 [CN1CC2═CC═CC(═C2C1)NC3═NC(═C]
JAK3
  IC50: < 100000 nM
JAK2
  IC50: < 1000 nM
JAK1
  IC50: < 100000 nM

## N#CCCn1cc(-c2nc(N(C(=O)c3ccccc3)C(=O)c3ccccc3)ncc2Cl)cn1 [ClC1═C(N═C(N═C1)N(C(═O)C2═CC═CC═C2)C]
JAK2
  IC50: < 100000 nM
